Data reported in patent publication US12064420B2, “Tie-2 activators targeting the Schlemm's canal” (EyePoint Pharmaceuticals, Inc., priority 2019, dated 2024).

System: ocular normotensive human patients with diabetic eye disease
Experiment: Phase 2 trial: IOP after subcutaneous Compound 1 alone or with intravitreal ranibizumab, diabetic macular edema
Type: in vivo
Description: IOP in patients were measured using a double-masked, parallel-group designed to assess the effects of subcutaneous (SC) Compound 1 (sodium salt) alone, or as an adjunct to intravitreal ranibizumab trial. 144 human subjects with diabetic retinopathy complicated by center-involved diabetic macular edema (DME) were randomized to 3 months of one of 3 treatments: 1) Compound 1 (15 mg) SC twice daily (BID) plus sham monthly intravitreal injection (IVT); 2) Compound 1 SC BID plus ranibizumab (0.3 mg) monthly IVT; and 3) Placebo SC BID+ranibizumab IVT. At baseline, mean age was 61.3±1.3 years; 59% of subjects were male; 82.6% had Type 2 diabetes; mean HBA1c was 7.5%±1.3%; mean best corrected visual acuity was 60.2 ETDRS letters (Snellen 20/63); and mean IOP was 15.7 mmHg±3.4. Ophthalmic safety assessments were performed at baseline and monthly during the 3-month treatment period including a single IOP measurement by applanation tonometry in both the study eye and the fellow eye at each time point. By protocol, all patients had baseline IOP<24 mmHg (ocular normotensive).
In the pre-specified safety analysis, change from baseline IOP was analyzed using a t-test (null hypothesis 0 change from baseline). The level of significance was set at 0.05. A post hoc analysis of the subject level IOP measure was the change from baseline in the average over both eyes within a subject for each timepoint. Statistical testing of each timepoint was completed using ANCOVA with baseline IOP (averaged over both eyes within a subject) as covariate. Additionally, statistical testing averaging across all timepoints was completed using a mixed-model repeated measures ANCOVA. The level of significance was set at 0.05.

[1] = average of study eye and fellow eye, week 4
[2] = average of study eye and fellow eye, week 8
[3] = average of study eye and fellow eye, week 12

ranibizumab [Placebo + ranibizumab, reference compound]
Week 4 subject-level IOP change from BL, mean (SD) [1]: −0.2 (2.61) mmHg
Week 4 subject-level IOP, mean (SD) [1]: 15.2 (3.50) mmHg
Week 8 subject-level IOP change from BL, mean (SD) [2]: 0.2 (2.86) mmHg
Week 8 subject-level IOP, mean (SD) [2]: 15.3 (3.31) mmHg
Week 12 subject-level IOP change from BL, mean (SD) [3]: 0.0 (3.32) mmHg
Week 12 subject-level IOP, mean (SD) [3]: 15.5 (3.85) mmHg
Week 4 IOP change from BL, mean (SD) (fellow eye (FE), week 4): −0.3 (3.49) mmHg
Week 4 IOP, mean (SD) (fellow eye (FE), week 4): 15.5 (4.85) mmHg
Week 8 IOP change from BL, mean (SD) (fellow eye (FE), week 8): −0.3 (3.44) mmHg
Week 8 IOP, mean (SD) (fellow eye (FE), week 8): 15.5 (4.52) mmHg
Week 12 IOP change from BL, mean (SD) (fellow eye (FE), week 12): −0.1 (3.62) mmHg
Week 12 IOP, mean (SD) (fellow eye (FE), week 12): 15.7 (5.19) mmHg
Week 4 IOP change from BL, mean (SD) (study eye (SE), week 4): −0.1 (2.74) mmHg
Week 4 IOP, mean (SD) (study eye (SE), week 4): 15.0 (3.50) mmHg
Week 8 IOP change from BL, mean (SD) (study eye (SE), week 8): 0.0 (3.25) mmHg
Week 8 IOP, mean (SD) (study eye (SE), week 8): 15.0 (3.61) mmHg
Week 12 IOP change from BL, mean (SD) (study eye (SE), week 12): 0.1 (3.83) mmHg
Week 12 IOP, mean (SD) (study eye (SE), week 12): 15.3 (4.09) mmHg
mean change in IOP from baseline (study or fellow eye, all time points): −0.3 to +0.1 mmHg
